Earlier results as cited in patent US11766470B2, “Manufacture, formulation and dosing of apraglutide” (VectivBio AG, priority 2020, dated 2023).
Where two headings read alike, the source gives them in different places.

Assays:
[1] = dosed once daily; cited from earlier work
[2] = cited from earlier work
[3] = cited from earlier work; remark: listed apart in the source

CC[C@H](C)[C@H](NC(=O)[C@H](Cc1ccccc1)NC(=O)[C@H](CC(=O)O)NC(=O)[C@H](CCCNC(=N)N)NC(=O)[C@H](C)NC(=O)[C@H](C)NC(=O)[C@H](CC(C)C)NC(=O)[C@H](CC(N)=O)NC(=O)[C@H](CC(=O)O)NC(=O)[C@H](CC(C)C)NC(=O)[C@@H](NC(=O)[C@@H](NC(=O)[C@H](CC(N)=O)NC(=O)[C@H](CCSC)NC(=O)[C@H](CCC(=O)O)NC(=O)[C@H](CC(=O)O)NC(=O)[C@H](CO)NC(=O)[C@H](Cc1ccccc1)NC(=O)[C@H](CO)NC(=O)CNC(=O)[C@H](CC(=O)O)NC(=O)CNC(=O)[C@@H](N)Cc1c[nH]cn1)[C@@H](C)O)[C@@H](C)CC)C(=O)N[C@@H](CC(N)=O)C(=O)N[C@@H](Cc1c[nH]c2ccccc12)C(=O)N[C@@H](CC(C)C)C(=O)N[C@H](C(=O)N[C@@H](CCC(N)=O)C(=O)N[C@H](C(=O)N[C@@H](CCCCN)C(=O)N[C@H](C(=O)N[C@H](C(=O)N[C@@H](CC(=O)O)C(=O)O)[C@@H](C)O)[C@@H](C)CC)[C@@H](C)O)[C@@H](C)CC [teduglutide]
Change from baseline increase in urinary input [1]: 139.3% | Change in baseline in energy absorption [1]: 792 kJ/day | Change in baseline in wet weight absorption [1]: 743 g/day

Glucagon-like peptide 2 [GLP-2, reference compound]
Half-life t½ [2]: 10 min

glepaglutide
Change from baseline increase in urinary output ([3]; 0.1 mg dose once daily): 111% | Change in baseline in energy absorption ([3]; 0.1 mg dose once daily): -377 kJ/day | Change in baseline in wet weight absorption ([3]; 0.1 mg dose once daily): -211 g/day | Change from baseline increase in urinary output ([3]; 1.0 mg dose once daily): 140% | Change in baseline in energy absorption ([3]; 1.0 mg dose once daily): 435 kJ/day | Change in baseline in wet weight absorption ([3]; 1.0 mg dose once daily): 650 g/day | Change from baseline increase in urinary output ([3]; 10 mg dose once daily): 132% | Change in baseline in energy absorption ([3]; 10 mg dose once daily): 588 kJ/day | Change in baseline in wet weight absorption ([3]; 10 mg dose once daily): 786 g/day
